≈ marks a conversion by molar mass, not a printed value. Calls of active or inactive are those of the source. No cut-off for these calls is given here.
What was measured:
[1] = Stability of the compound at pH 7; format: physicochemical; conditions: buffer
[2] = test system: Trichophyton mentagrophytes; experiment: Antifungal activity against Trichophyton mentagrophytes 445 assessed as growth inhibition after 72 to 120 hrs by microbroth dilution method; format: functional, organism-based
[3] = test system: Lichtheimia corymbifera; experiment: Antifungal activity against Absidia corymbifera 272 assessed as growth inhibition after 24 to 48 hrs by microbroth dilution method; format: functional, organism-based
[4] = test system: Aspergillus fumigatus; experiment: Antifungal activity against Aspergillus fumigatus 231 assessed as growth inhibition after 24 to 48 hrs by microbroth dilution method; format: functional, organism-based
[5] = test system: Trichosporon asahii; experiment: Antifungal activity against Trichosporon asahii 1188 assessed as growth inhibition after 24 to 48 hrs by microbroth dilution method; format: functional, organism-based
[6] = test system: Nakaseomyces glabratus; experiment: Antifungal activity against Candida glabrata 20/I assessed as growth inhibition after 24 to 48 hrs by microbroth dilution method; format: functional, organism-based
[7] = test system: Pichia kudriavzevii; experiment: Antifungal activity against Candida krusei E28 assessed as growth inhibition after 24 to 48 hrs by microbroth dilution method; format: functional, organism-based
[8] = test system: Candida albicans; experiment: Antifungal activity against Candida albicans ATCC 44859 assessed as growth inhibition after 24 to 48 hrs by microbroth dilution method; format: functional, organism-based
[9] = test system: Candida tropicalis; experiment: Antifungal activity against Candida tropicalis 156 assessed as growth inhibition after 24 to 48 hrs by microbroth dilution method; format: functional, organism-based
[10] = test system: Klebsiella pneumoniae; experiment: Antibacterial activity against ESBL-positive Klebsiella pneumoniae J 14368/08 clinical isolate assessed as growth inhibition after 24 to 48 hrs by microbroth dilution method; format: functional, organism-based
[11] = test system: Klebsiella pneumoniae; experiment: Antibacterial activity against Klebsiella pneumoniae D 11750/08 clinical isolate assessed as growth inhibition after 24 to 48 hrs by microbroth dilution method; format: functional, organism-based
[12] = test system: Enterococcus; experiment: Antibacterial activity against Enterococcus sp. J 14365/08 clinical isolate assessed as growth inhibition after 24 to 48 hrs by microbroth dilution method; format: functional, organism-based
[13] = test system: Staphylococcus epidermidis; experiment: Antibacterial activity against Staphylococcus epidermidis H 6966/08 clinical isolate assessed as growth inhibition after 24 to 48 hrs by microbroth dilution method; format: functional, organism-based
[14] = test system: Staphylococcus aureus; experiment: Antibacterial activity against methicillin-resistant Staphylococcus aureus H 5996/08 clinical isolate assessed as growth inhibition after 24 to 48 hrs by microbroth dilution method; format: functional, organism-based
[15] = test system: Pseudomonas aeruginosa; experiment: Antibacterial activity against Pseudomonas aeruginosa CCM 1961 assessed as growth inhibition after 24 to 48 hrs by microbroth dilution method; format: functional, organism-based
[16] = test system: Escherichia coli; experiment: Antibacterial activity against Escherichia coli CCM 4517 assessed as growth inhibition after 24 to 48 hrs by microbroth dilution method; format: functional, organism-based
[17] = test system: Staphylococcus aureus; experiment: Antibacterial activity against Staphylococcus aureus CCM 4516/08 assessed as growth inhibition after 24 to 48 hrs by microbroth dilution method; format: functional, organism-based
[18] = Lipophilicity, log K of the compound by HPLC analysis; format: physicochemical
[19] = test system: Mycobacterium avium; experiment: Antimycobacterial activity against Mycobacterium avium CNCTC My 152/73 assessed as growth inhibition after 14 days by microdilution method; format: functional; conditions: CNCTC My 152/73, 336 h
[20] = test system: Mycobacterium avium; experiment: Antimycobacterial activity against Mycobacterium avium CNCTC My 80/72 assessed as growth inhibition after 14 days by microdilution method; format: functional; conditions: CNCTC My 80/72, 336 h
[21] = test system: Mycobacterium kansasii; experiment: Antimycobacterial activity against Mycobacterium kansasii CNCTC My 235/80 assessed as growth inhibition after 14 days by microdilution method; format: functional; conditions: CNCTC My 235/80, 336 h
[22] = test system: Mycobacterium tuberculosis; experiment: Antimycobacterial activity against Mycobacterium tuberculosis H37Rv assessed as growth inhibition after 14 days by microdilution method; format: functional; conditions: 336 h

SMILES | Stability [1] | growth inhibition (GI) [2] | growth inhibition (GI) [3] | growth inhibition (GI) [4] | growth inhibition (GI) [5] | growth inhibition (GI) [6] | growth inhibition (GI) [7] | growth inhibition (GI) [8] | growth inhibition (GI) [9] | growth inhibition (GI) [10] | growth inhibition (GI) [11] | growth inhibition (GI) [12] | growth inhibition (GI) [13] | growth inhibition (GI) [14] | growth inhibition (GI) [15] | growth inhibition (GI) [16] | growth inhibition (GI) [17] | MIC [19] | MIC [20] | MIC [22] | other results
COc1ccc(NC(=O)c2cnc(Cl)cn2)c(OC)c1 | Stable | inactive | inactive | inactive | inactive | inactive | inactive | inactive | inactive | inactive | inactive | inactive | inactive | inactive | inactive | inactive | inactive | > 100 µg/mL | > 100 µg/mL | > 100 µg/mL | log K [18]: 0.5791; MIC [21]: > 100 µg/mL
Cc1ccccc1CNC(=O)c1cnc(Cl)cn1 | Stable | inactive | inactive | inactive | inactive | inactive | inactive | inactive | inactive | inactive | inactive | inactive | inactive | inactive | inactive | inactive | inactive | > 100 µg/mL | > 100 µg/mL | 50 µg/mL (≈ 191 µM) | log K [18]: 0.3947; MIC [21]: 25 µg/mL (≈ 95.5 µM)
O=C(NCc1cccc([N+](=O)[O-])c1)c1cnc(Cl)cn1 | Stable | inactive | inactive | inactive | inactive | inactive | inactive | inactive | inactive | inactive | inactive | inactive | inactive | inactive | inactive | inactive | inactive | > 100 µg/mL | > 100 µg/mL | > 100 µg/mL | log K [18]: 0.1189; MIC [21]: 12.5 µg/mL (≈ 42.7 µM)
O=C(Nc1ccccc1F)c1cnc(Cl)cn1 | Stable | inactive | inactive | inactive | inactive | inactive | inactive | inactive | inactive | inactive | inactive | inactive | inactive | inactive | inactive | inactive | inactive | > 100 µg/mL | > 100 µg/mL | 6.25 µg/mL (≈ 24.8 µM) | log K [18]: 0.4903; MIC [21]: 12.5 µg/mL (≈ 49.7 µM)
O=C(Nc1ccc(Br)cc1)c1cnc(Cl)cn1 | Stable | inactive | inactive | inactive | inactive | inactive | inactive | inactive | inactive | inactive | inactive | inactive | inactive | inactive | inactive | inactive | inactive | > 100 µg/mL | > 100 µg/mL | 3.13 µg/mL (≈ 10 µM) | log K [18]: 0.6601; MIC [21]: 6.25 µg/mL (≈ 20 µM)
OC(Cn1cncn1)(Cn1cncn1)c1ccc(F)cc1F | – | Active | Active | Active | Active | Active | Active | Active | Active | – | – | – | – | – | – | – | – | – | – | – | –
NC(=O)c1cnccn1 [PYRAZINAMIDE] | – | – | – | – | – | – | – | – | – | – | – | – | – | – | – | – | – | > 100 µg/mL | > 100 µg/mL | 12.5 µg/mL (≈ 102 µM) | MIC [21]: > 100 µg/mL
COc1ccc(CNC(=O)c2cnc(Cl)cn2)c(OC)c1 | Stable | inactive | inactive | inactive | inactive | inactive | inactive | inactive | inactive | inactive | inactive | inactive | inactive | inactive | inactive | inactive | inactive | > 100 µg/mL | > 100 µg/mL | > 100 µg/mL | log K [18]: 0.2266; MIC [21]: > 100 µg/mL
O=C(Nc1ccccc1Cl)c1cnc(Cl)cn1 | Stable | inactive | inactive | inactive | inactive | inactive | inactive | inactive | inactive | inactive | inactive | inactive | inactive | inactive | inactive | inactive | inactive | > 100 µg/mL | > 100 µg/mL | 0.78 µg/mL (≈ 2.91 µM) | log K [18]: 0.8193
NNC(=O)c1ccncc1 [ISONIAZID] | – | – | – | – | – | – | – | – | – | – | – | – | – | – | – | – | – | 6.25 µg/mL (≈ 45.6 µM) | 25 µg/mL (≈ 182 µM) | 1.56 µg/mL (≈ 11.4 µM) | MIC [21]: 12.5 µg/mL (≈ 91.1 µM)
O=C(Nc1cccc([N+](=O)[O-])c1)c1cnc(Cl)cn1 | Stable | inactive | inactive | inactive | inactive | inactive | inactive | inactive | inactive | inactive | inactive | inactive | inactive | inactive | inactive | inactive | inactive | > 100 µg/mL | > 100 µg/mL | 3.13 µg/mL (≈ 11.2 µM) | log K [18]: 0.3443

— ChEMBL document CHEMBL2396653, “Synthesis and antimycobacterial evaluation of N-substituted 5-chloropyrazine-2-carboxamides” (Bioorg Med Chem Lett, 2013)
